Source: US6287813A, “Antibiotic-based gene regulation system” (Cistronics Cell Technology GmbH, priority 1999, dated 2001)

Biological target: T1, PIT/PPIR system (Streptomyces coelicolor, UniProt Q9ADN3)
T1 construct: pMF156/pTWIN in CHO cells, PPIR-SEAP or GFP reporter
T1 sequence (Q9ADN3 1-252): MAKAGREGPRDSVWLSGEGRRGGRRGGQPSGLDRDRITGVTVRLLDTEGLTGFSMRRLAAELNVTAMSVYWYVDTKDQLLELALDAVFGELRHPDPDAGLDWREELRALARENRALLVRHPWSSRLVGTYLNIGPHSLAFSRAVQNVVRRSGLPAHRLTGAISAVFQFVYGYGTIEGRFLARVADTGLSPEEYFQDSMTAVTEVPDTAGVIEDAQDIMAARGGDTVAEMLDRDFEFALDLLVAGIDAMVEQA
Test: SEAP reporter assay, CHO-TWIN clones transfected with pMF172 (PPIR-SEAP)
Assay type: cell-based
Conditions: for SEAP Production (%): 48 h, no inducer = 100
Excerpt: pTWIN contains both PIT and tTA in a PSV40 -driven dicistronic configuration. For construction of pTWIN, PIT was first transferred from pMF156 as an EcoRI/HindIII fragment to the corresponding sites of pSBC-1 (EcoRI/HindIII; resulting in pMF167) before the PIT expression unit could be fused to the tTA expression unit contained on pSBC2-tTA (Fussenegger et al., 1997, supra) via SspI/NotI sites. Thus, pTWIN contains the dicistronic PSV40 -PIT-IRES-tTA-pA expression cassette.
Chinese hamster ovary cells (CHO-K1, ATCC: CCL 61), Baby hamster kidney cells (BHK-21, ATCC: CRL-8544), and HeLa cells (ATCC: CRL-7923) as well as stable cell lines CHO-PIT1, CHO-PIT2, CHO-TWIN195, CHO-TWIN1108 and CHO-PIT1-SEAP were cultured as described before (Fussenegger et al., 1998, Nat. Biotechnol. 16,468-472) in the presence of appropriate antibiotics: G418 400 μg/ml; zeocin 100 μg/ml. Optimized CaPO4 protocols were used for high efficiency transient transfection of all cell lines (id). Transient transfected cells were routinely analyzed after 48 h for GFP or SEAP expression using fluorescence microscopy and p-nitrophenolphosphate-based light absorbance timecourse, respectively, as described before (Fussenegger et al., 1998, Nat. Biotechnol. 16, 468-472; Berger et al., 1988, Gene 66, 1-10 b). For construction of stable CHO-PIT and CHO-TWIN cell lines, CHO-K1 was cotransfected either with pMF156 or pTWIN1 and pSV2neo carrying the G418 resistance gene. CHO-PIT1-SEAP was constructed by cotransfection of pMF172 and pZeoSV2 (Invitrogen). For assessment of dose-response characteristics of PPIR -regulated gene expression, CHO-PIT1-SEAP were cultured at cell densities of 150,000/ml for 48 at various PI concentrations. The mixed populations were cloned using FACS-mediated single-cell-sorting (FACStar^Plus; Beckton Dickinson). Gel retardation assay were performed as described (Salah-Bey et al., 1995, supra) using Pip purified from an overproducing strain of E. coli. Pip (0.02 pmol) was titrated with a range of antibiotic concentrations in a reaction volume of 20 μl. Protein solutions were pre-incubated at room temperature for 15 min. in the absence or presence of PI or its derivative quinupristin in a buffer containing 10 mM Tris (pH 7.8), 10 mM MgCl2, 300 mM NaCl, 2 mM DTT and 10% glycerol. An EcoRI-HindII PPTR fragment (0.02 pmol) containing three Pip binding sites (radiolabelled using α-^32 P)dATP was added and incubated for 15 min. To minimize nonspecific protein binding and increase protein stability, 2 μg of poly dIdC and 20 μg BSA were included in the incubation mix. Protein-DNA complexes were separated on 5% polyacrylamide,TBE gels and visualized by autoradiography.
CHO-TWIN195 and CHO-TWIN1108 were transfected under identical conditions with the isogenic plasmids containing the SEAP gene under control of the tTA-activated promoter PhCMV*-1 (pMF111) or the PIT-activated promoter PPIR (pMF172). Transfected cells were grown for 48 h in the presence or absence of either antibiotic prior to assay of SEAP activity.
Table 6: Comparison of the regulation performance of streptogramin- (PI and virginiamycin; VIR) and tetracycline-based gene regulation systems. The two cell clones CHO-TWIN195 and CHO-TWIN1108 containing both pristinamycin- and tetracycline-dependent transactivators were transfected with either the streptogramin-responsive or the TET-responsive SEAP reporter plasmids pMF172 (PPIR -SEAP) and pMF111 (PhCMV*-1 -SEAP), respectively, and the relative SEAP production was assessed. SEAP production values are normalized by SEAP activities under the antibiotic-free, active promoter conditions as follows: pMF172 in CHO-TWIN195:1.7 mU/ml; in CHO-TWIN1108 : 1.8 mU/ml. pMF111 in CHO-TWIN195 : 18.6 mU/ml; in CHO-TWIN1108 : 19.2 mU/ml.
Table 7: Compatibility of the streptogramin- and tetracycline-based gene regulation systems. Crossregulation of pristinamycin (PI) and the tetracyclines doxycycline (DOX) and tetracycline (TET). […]

## pristinamycin I [PI]
CHO-TWIN195 + pMF172
  Induction factor (IF; ratio of maximal expression level to antibiotic-repressed expression level): 12
  SEAP Production (%): 8.84 ± 0.01%
CHO-TWIN1108 + pMF172
  Induction factor (IF; ratio of maximal expression level to antibiotic-repressed expression level): 45
  SEAP Production (%): 2.2 ± 0.4%
